Data from patent US12673918B2, “Small molecule RPN13 inhibitors with antitumor properties” (The Johns Hopkins University, priority 2019, dated 2026).
Read-outs that look alike come from different tables or passages of the source.

How the values were obtained:
SKOV3-TR = experiment: MTT cytotoxicity assay, SKOV3-TR
PEO4 = experiment: cells; settings: PEO4, read-out: cytotoxicity IC50 PEO4
Experimental: (§1) Cell lines and cytotoxicity assays: All cell lines were obtained from the American Type Culture Collection (ATCC) and cultured in the specified medium supplemented with 10% fetal bovine serum, 100 IU/mL penicillin, and 100 μg/mL streptomycin at 37° C. in a humidified 5% CO2/95% air incubator. […] To assess drug cytotoxicity, cells were seeded at 2,500 cells/well (10,000 cells/well for MM lines) in 100 μL medium in 96-well plate and after 24 treated with compounds for 72 h, incubated according to the manufacturer's protocol with the Thiazolyl Blue Tetrazolium Bromide (Sigma, M2128) and A570 measured using a Benchmark Plus microplate spectrophotometer (BIO-RAD). IC50 data was analyzed by Graphpad Prism software. In the chirality studies the cells were treated with compounds for 48 h, and the cells were incubated and measured via the preceeding protocols.

SiHa = experiment: MTT cytotoxicity assay, SiHa
BR5-FvB1 = experiment: MTT cytotoxicity assay, BR5-FvB1; settings: Mus musculus, read-out: cytotoxicity IC50 BR5-FvB1
Experimental: as §1

intracellular ATP = experiment: Luciferase-based ATP measurement, ES2 cells; type: cell-based, human; settings: luciferase expressing ES2 cells, 4 hr, sublethal doses
Experimental: Briefly, firefly luciferase expressing ES2 cells were treated for 4 hr with compounds at sublethal doses and the bioluminescence was measured in intact cells using luminometer by adding luciferin. […] This is associated with enhanced glycolysis while bortezomib suppresses oxidative phosphorylation (OXPHOS) (66).
ATP measurement assay: To measure ATP levels in cells, luciferase based bioluminescence assay was performed. Briefly cells stably expressing firefly luciferase plated in a 6 well plate (250,000 cells/well) in growth medium. After 24 h incubation, cells were treated with compounds at indicated concentrations for the period of 4 h and the bioluminescence was measured by IVIS 200 imager in intact cells by adding luciferin substrate to the growth medium. Cell viability was assessed in parallel using an MTT assay.

[1] = tested on: polyubiquitinated proteins; experiment: Western blot of polyubiquitinated proteins, SKOV3 cells; type: cell-based, human; settings: 4 h
Experimental: FIG. 14A illustrates SKOV3 cells treated with compounds for 4 h and analyzed by Western blot analysis with antibody to ubiquitin.
Antibodies, reagents, and Western Blot Analyses: Cell lysate (10-20 μg total protein) prepared in MPER (Pierce) from each sample was subjected to SDS-PAGE, transferred to PVDF membranes and analyzed by Western blot using antibodies specific Bax (#2772, Cell Signaling), ubiquitin (P4D1, sc-8017, Santa Cruz), PARP (#9542, BD Pharmingen), actin (#66009, Protein Tech Group), Tubulin(#66031, Protein Tech Group), ADRM1/Rpn13 (D9Z1U, #12019, Cell Signaling), Lys48-linkled ubiquitin (Apu 2, 05-1307, (Millipore), Annexin V (#559763, BD pharmingen), caspase-3 (51-68655X, BD Pharmingen) at the dilutions recommended by the manufacturers, and for secondary antibodies either peroxidase-linked anti-mouse IgG or anti-rabbit IgG (GE Healthcare UK Ltd) were utilized, HRP conjugated streptavidin (N100, Thermo Fisher) at the recommended dilution (1:5000). MitoTracker Red CMXRos reagent was purchased from ThermoFisher #M7512. The blots were developed using HyGLO chemiluminescent detection reagent (Denville).

BR5-Luc = experiment: MTT cytotoxicity assay, BR5-Luc; settings: read-out: cytotoxicity IC50 BR5-Luc, Tables 3A/4B/4C, BRCA2 − VE
CHOP-10 mRNA = experiment: RT-qPCR of CHOP-10 mRNA, ES2 cells; type: cell-based, human; settings: ES2, 0.5 μM, 12 hr
Experimental: FIG. 7A illustrates ES2 cells (250,000 cells/well) treated with compounds at 1 μM for 12 hr and mRNA was isolated. Samples were subjected to RT-qPCR to measure CHOP10 and mRNA levels normalized to GAPDH expression. Significance versus DMSO control (ns=not significant, ** <0.01, *** <0.001, **** <0.0001).
FIG. 16A illustrates ES2 cells treated with compounds (0.5 μM) for 12 hr and CHOP-10 mRNA levels, an ER stress marker, which was analyzed by qRT-PCR.
Q-PCR to measure mRNA levels: Total RNA was isolated from cells using the RNeasy mini kit (Qiagen) according to the manufacturer's instructions. Extracted RNA was normalized for concentration and reverse transcribed using an iScript cDNA synthesis kit (Bio-Rad) according to the manufacturer's instructions. CHOP10 expression levels were measured by Taqman gene expression assays with Taqman gene expression master mix (Applied Biosystems) and run with a standard thermal cycling protocol. Spliced XBP1 mRNA was assayed with SsoFast EvaGreen Supermix (Bio-rad) following the protocol for the iCycler System using as primers: F: 5′-[…]-3′ and R: 5′-[…]-3′. Calculations were done according to the Livak method and normalized to the reference gene GAPDH. Each condition was replicated three times; each sample was run in triplicate.

KLE = experiment: MTT cytotoxicity assay, KLE; settings: read-out: cytotoxicity IC50 KLE, Tables 3A/4B/4C
[2] = tested on: HFF (Human Foreskin Fibroblast); experiment: MTT cytotoxicity assay, HFF normal cells; type: cell-based; settings: read-out: IC50 HFF
Experimental: (§2) Cell lines and cytotoxicity assays: All cell lines were obtained from the American Type Culture Collection (ATCC) and cultured in the specified medium supplemented with 10% fetal bovine serum, 100 IU/mL penicillin, and 100 μg/mL streptomycin at 37° C. in a humidified 5% CO2/95% air incubator. […] To assess drug cytotoxicity, cells were seeded at 2,500 cells/well (10,000 cells/well for MM lines) in 100 μL medium in 96-well plate and after 24 treated with compounds for 72 h, incubated according to the manufacturer's protocol with the Thiazolyl Blue Tetrazolium Bromide (Sigma, M2128) and A570 measured using a Benchmark Plus microplate spectrophotometer (BIO-RAD). IC50 data was analyzed by Graphpad Prism software.

HS578T = experiment: MTT cytotoxicity assay, HS578T
OVCAR3 = experiment: MTT cytotoxicity assay, OVCAR3
Mouse Skin Keratinocytes = experiment: MTT cytotoxicity assay, mouse skin keratinocytes; type: cell-based; settings: Keratinocyte, read-out: IC50 Keratinocytes
Experimental: as §2

SSC90 = experiment: MTT cytotoxicity assay, SSC90
ANBL6 = experiment: MTT cytotoxicity assay, ANBL6; type: cell-based; settings: Homo sapiens, read-out: IC50 ANBL6
Experimental: (§3) The cytotoxic efficacy of selected compounds was assessed against multiple myeloma (MM) cell lines, as this is a validated clinical target for the licensed proteasome inhibitors.
as §2

ANBL6-V10R = experiment: MTT cytotoxicity assay, ANBL6-V10R; type: cell-based; settings: read-out: IC50 ANBL6-V10R
Experimental: as §3, §2

RPMI8226 = experiment: MTT cytotoxicity assay, RPMI8226; type: cell-based; settings: Homo sapiens, read-out: IC50 RPMI8226
Experimental: as §3, §2

LNCaP = experiment: MTT cytotoxicity assay, LNCaP; settings: Homo sapiens
PC3 = experiment: MTT cytotoxicity assay, PC3; settings: Homo sapiens
MDA-MB231 = experiment: MTT cytotoxicity assay, MDA-MB231; type: cell-based; settings: Homo sapiens, read-out: IC50 MDA-MB231
Experimental: as §2

[3] = read-out: cytotoxicity IC50 SKOV3-TR, Tables 3A/4B/4C, MTT assay
[4] = read-out: cytotoxicity IC50 SiHa, Tables 3A/4B/4C, MTT assay
[5] = Table 3, MTT, 48 hr, normal Human Foreskin Fibroblast
[6] = read-out: cytotoxicity IC50 HS578T, Tables 3A/4B/4C, MTT assay
[7] = read-out: cytotoxicity IC50 OVCAR3, Tables 3A/4B/4C, MTT assay
[8] = Table 3, MTT, 48 hr, normal Mouse Skin
[9] = read-out: cytotoxicity IC50 SSC90, Tables 3A/4B/4C, MTT assay
[10] = read-out: cytotoxicity IC50 LNCAP
[11] = PC-3, read-out: cytotoxicity IC50 PC3

Structure (SMILES)	IC50 (SKOV3-TR; [3]) [µM]	IC50 (PEO4) [µM]	IC50 (SiHa; [4]) [µM]	IC50 (BR5-FvB1) [µM]	ATP-dependent bioluminescence (intracellular ATP levels) (intracellular ATP)	accumulation of polyubiquitinated proteins [1]	IC50 (BR5-Luc) [µM]	CHOP10 transcript levels (CHOP-10 mRNA)	IC50 (KLE) [µM]	IC50 [2, 5] [µM]	IC50 (HS578T; [6]) [µM]	IC50 (OVCAR3; [7]) [µM]	IC50 (Mouse Skin Keratinocytes; [8]) [µM]	IC50 (SSC90; [9]) [µM]	IC50 ([2]; Homo sapiens, Fibroblast, 48 h) [µM]	IC50 (ANBL6; ANBL-6, 48 h) [µM]	IC50 (ANBL6-V10R; 48 h) [µM]	IC50 (RPMI8226; RPMI-8226, 48 h) [µM]	IC50 (LNCaP; [10]) [µM]	IC50 (PC3; [11]) [µM]	also measured
C[C@H]1/C(=C\c2ccc([N+](=O)[O-])cc2)C(=O)/C(=C/c2ccc([N+](=O)[O-])cc2)CN1C(=O)[C@@H](N)Cc1ccccc1	0.06	0.041	0.034	0.125	reduced bioluminescence	enhanced the accumulation of polyubiquitinated proteins	0.0057	significantly increased CHOP10 transcript levels	1.46												
CC(C)C[C@H](NC(=O)[C@H](Cc1ccccc1)NC(=O)c1cnccn1)B(O)O [Bortezomib, bortezomib, reference compound]		0.031		< 0.02	not evident	enhanced the accumulation of polyubiquitinated proteins	0.0041	significantly increased CHOP10 transcript levels	1.19	> 0.1	0.013	0.03	> 0.1	0.015							
N[C@@H](Cc1ccccc1)C(=O)N1C/C(=C\c2ccc([N+](=O)[O-])cc2)C(=O)/C(=C/c2ccc([N+](=O)[O-])cc2)C1 [RA183, reference compound]	0.077		0.263		reduced bioluminescence	enhanced the accumulation of polyubiquitinated proteins			0.989		0.089	0.078			> 1	0.058	0.103	0.088	0.186	0.133	IC50 (HS578T; read-out: IC50 HS578T, Table 3, MTT, 48 hr, Triple Negative Breast): 0.089 µM; IC50 (OVCAR3; read-out: IC50 OVCAR3, Table 3, MTT, 48 hr, Ovarian): 0.078 µM; IC50 (SKOV3-TR; read-out: IC50 SKOV3-TR, Table 3, MTT, 48 hr, Ovarian, paclitaxel resistant): 0.077 µM; IC50 (SiHa; read-out: IC50 SiHa, Table 3, MTT, 48 hr, Cervical (HPV +ve)): 0.263 µM; IC50 (LNCaP; 48 h, read-out: IC50 LNCaP): 0.186 µM; IC50 (PC3; PC-3, 48 h, read-out: IC50 PC3): 0.133 µM; IC50 (MDA-MB231; MDA-MB-231, 48 h): 0.124 µM; IC50 (Mouse Skin Keratinocytes; Mus musculus, 48 h): > 1 µM
N[C@@H](Cc1ccccc1)C(=O)N1C/C(=C\c2ccc(Cl)c(Cl)c2)C(=O)/C(=C/c2ccc(Cl)c(Cl)c2)C1 [RA190, reference compound]	0.109	0.168	0.603	0.25			0.038		1.59	> 1	0.078	0.12	> 1	0.625					0.242	0.162	IC50 (ANBL6; ANBL-6, Table 3, MTT, 48 hr, Multiple Myeloma): 0.067 µM; IC50 (ANBL6-V10R; Table 3, MTT, 48 hr, Multiple Myeloma, bortezomib resistant): 0.055 µM; IC50 (RPMI8226; RPMI-8226, Table 3, MTT, 48 hr, Multiple Myeloma): 0.045 µM; IC50 (MDA-MB231; MDA-MB-231, Table 3, MTT, 48 hr, Triple Negative Breast): 0.134 µM
O=C(CCl)N[C@@H](Cc1ccccc1)C(=O)N1C/C(=C\c2ccc([N+](=O)[O-])cc2)C(=O)/C(=C/c2ccc([N+](=O)[O-])cc2)C1 [RA375]	0.022														> 1	0.012	0.016	0.009			IC50 (OVCAR3; read-out: IC50 OVCAR3): 0.017 µM; IC50 (SiHa; read-out: IC50 SiHa): 0.041 µM; IC50 (LNCaP; 48 h, read-out: IC50 LNCaP): 0.06 µM; IC50 (PC3; PC-3, 48 h, read-out: IC50 PC3): 0.027 µM; IC50 (MDA-MB231; MDA-MB-231, 48 h): 0.022 µM; IC50 (Mouse Skin Keratinocytes; Mus musculus, 48 h): > 1 µM; IC50 (SSC90; read-out: IC50 SSC90): 0.024 µM
CC1/C(=C\c2ccc([N+](=O)[O-])cc2)C(=O)/C(=C/c2ccc([N+](=O)[O-])cc2)CN1C(=O)[C@H](Cc1ccccc1)NC(=O)CCl (stereo partly shown) [RA414]	< 0.02	0.03	0.0075			enhanced the accumulation of polyubiquitinated proteins		significantly increased CHOP10 transcript levels	1.12		0.0015	< 0.02		< 0.02					0.024	0.012	
